# Source: US20110009381A1, “SOLUBILIZED THIAZOLOPYRIDINES” (Sirtis Pharmaceuticals, Inc., priority 2007, published 2011)
# Target: T1, SIRT1 (Homo sapiens, UniProt Q96EB6)
# T1 sequence (Q96EB6 1-747): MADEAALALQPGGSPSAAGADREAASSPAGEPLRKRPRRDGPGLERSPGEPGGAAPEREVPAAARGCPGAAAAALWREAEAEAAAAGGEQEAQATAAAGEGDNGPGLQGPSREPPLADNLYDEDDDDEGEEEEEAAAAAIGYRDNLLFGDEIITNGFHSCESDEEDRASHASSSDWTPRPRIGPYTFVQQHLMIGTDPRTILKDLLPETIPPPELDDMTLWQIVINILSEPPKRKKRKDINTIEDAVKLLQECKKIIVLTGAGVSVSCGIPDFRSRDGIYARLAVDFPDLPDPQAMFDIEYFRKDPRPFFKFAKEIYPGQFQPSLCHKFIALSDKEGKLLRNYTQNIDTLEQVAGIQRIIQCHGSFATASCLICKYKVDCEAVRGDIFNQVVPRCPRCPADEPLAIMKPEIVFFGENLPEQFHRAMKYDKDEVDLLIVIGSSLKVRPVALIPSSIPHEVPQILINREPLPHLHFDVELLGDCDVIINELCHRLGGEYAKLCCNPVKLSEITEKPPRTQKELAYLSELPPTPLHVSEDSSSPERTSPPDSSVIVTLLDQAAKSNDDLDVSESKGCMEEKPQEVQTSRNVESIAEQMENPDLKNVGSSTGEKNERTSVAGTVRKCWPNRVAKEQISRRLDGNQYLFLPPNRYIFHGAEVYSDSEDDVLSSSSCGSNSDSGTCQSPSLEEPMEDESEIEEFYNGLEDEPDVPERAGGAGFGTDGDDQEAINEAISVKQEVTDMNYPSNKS
# Assay: Mass spectrometry based assay to identify modulators of SIRT1 activity (deacetylation of p53-based acetylated peptide substrate)
# Assay type: biochemical
# Settings: 10 nM SIRT1, 0.5 μM peptide substrate, 120 μM βNAD+, 25 minutes at 25° C.
# Text: A mass spectrometry based assay was used to identify modulators of SIRT1 activity. The mass spectrometry based assay utilizes a peptide having 20 amino acid residues as follows: Ac-EE-K(biotin)-GQSTSSHSK(Ac)NleSTEG-K(5TMR)-EE-NH2 (SEQ ID NO: 1) wherein K(Ac) is an acetylated lysine residue and Nle is a norleucine. The peptide is labeled with the fluorophore 5TMR (excitation 540 nm/emission 580 nm) at the C-terminus. The sequence of the peptide substrate is based on p53 with several modifications. In addition, the methionine residue naturally present in the sequence was replaced with the norleucine because the methionine may be susceptible to oxidation during synthesis and purification.
# The mass spectrometry assay is conducted as follows: 0.5 μM peptide substrate and 120 μM βNAD^+ is incubated with 10 nM SIRT1 for 25 minutes at 25° C. in a reaction buffer (50 mM Tris-acetate pH 8, 137 mM NaCl, 2.7 mM KCl, 1 mM MgCl2, 5 mM DTT, 0.05% BSA). Test compounds may be added to the reaction as described above. The SirT1 gene is cloned into a T7-promoter containing vector and transformed into BL21(DE3). After the 25 minute incubation with SIRT1, 10 μL of 10% formic acid is added to stop the reaction. Reactions are sealed and frozen for later mass spec analysis. Determination of the mass of the substrate peptide allows for precise determination of the degree of acetylation (i.e. starting material) as compared to deacetylated peptide (product).
# A control for inhibition of sirtuin activity is conducted by adding 1 μL of 500 mM nicotinamide as a negative control at the start of the reaction (e.g., permits determination of maximum sirtuin inhibition). A control for activation of sirtuin activity is conducted using 10 nM of sirtuin protein, with 1 μL of DMSO in place of compound, to determine the amount of deacetylation of the substrate at a given timepoint within the linear range of the assay. This timepoint is the same as that used for test compounds and, within the linear range, the endpoint represents a change in velocity.
# For the above assay, SIRT1 protein was expressed and purified as follows. The SirT1 gene was cloned into a T7-promoter containing vector and transformed into BL21(DE3). The protein was expressed by induction with 1 mM IPTG as an N-terminal His-tag fusion protein at 18° C. overnight and harvested at 30,000×g. Cells were lysed with lysozyme in lysis buffer (50 mM Tris-HCl, 2 mM Tris[2-carboxyethyl]phosphine (TCEP), 10 μM ZnCl2, 200 mM NaCl) and further treated with sonication for 10 min for complete lysis. The protein was purified over a Ni-NTA column (Amersham) and fractions containing pure protein were pooled, concentrated and run over a sizing column (Sephadex S200 26/60 global). The peak containing soluble protein was collected and run on an Ion-exchange column (MonoQ). Gradient elution (200 mM-500 mM NaCl) yielded pure protein. This protein was concentrated and dialyzed against dialysis buffer (20 mM Tris-HCl, 2 mM TCEP) overnight. The protein was aliquoted and frozen at −80° C. until further use.
# Sirtuin modulating compounds that activated SIRT1 were identified using the assay described above and are shown below in Table 1. The EC1-5 values for the activating compounds are represented by A′ (EC1.5<250 nM), A (EC1.5≧250 nM and ≦1 uM), B (EC1.5>1 and ≦10 uM), or C (EC1.5>10 uM). The percent maximum fold activation is represented by A (Fold activation≧300%), B (Fold Activation≧150% and <300%), or C (Fold Activation<150%).
row,SMILES,FOLD ACT. (percent maximum fold activation)
1,Cc1ccn(CCNc2cc(C(=O)Nc3ccccc3-c3nc4cccnc4s3)nc(-c3ccccc3)n2)n1 [Compound 78],A (Fold activation≧300%)
2,O=C(Nc1ccccc1-c1nc2cccnc2s1)c1cc(C#CCO)nc(-c2ccccc2)n1 [Compound 79],C (Fold Activation<150%)
3,O=C(Nc1ccccc1-c1nc2cccnc2s1)c1cc(NCC2CCNCC2)nc(-c2ccccc2)n1 [Compound 82],A (Fold activation≧300%)
4,NCCNc1cc(C(=O)Nc2ccccc2-c2nc3cccnc3s2)nc(-c2ccccc2)n1 [Compound 83],A (Fold activation≧300%)
5,NCCCNc1cc(C(=O)Nc2ccccc2-c2nc3cccnc3s2)nc(-c2ccccc2)n1 [Compound 84],A (Fold activation≧300%)
6,O=C(Nc1ccccc1-c1nc2cccnc2s1)c1cc(N[C@H]2CCCNC2)nc(-c2ccccc2)n1 [Compound 85],A (Fold activation≧300%)
7,NCCCCCNc1cc(C(=O)Nc2ccccc2-c2nc3cccnc3s2)nc(-c2ccccc2)n1 [Compound 86],A (Fold activation≧300%)
8,NCCCCNc1cc(C(=O)Nc2ccccc2-c2nc3cccnc3s2)nc(-c2ccccc2)n1 [Compound 87],A (Fold activation≧300%)
9,O=C(Nc1ccccc1-c1nc2cccnc2s1)c1cc(NCC2CCCCN2)nc(-c2ccccc2)n1 (centres unmarked) [Compound 89],A (Fold activation≧300%)
10,O=C(Nc1ccccc1-c1nc2cccnc2s1)c1cc(NC2CCOC2=O)nc(-c2ccccc2)n1 (centres unmarked) [Compound 91],A (Fold activation≧300%)
11,O=C(Nc1ccccc1-c1nc2cccnc2s1)c1cc(NC(CO)C(=O)O)nc(-c2ccccc2)n1 (centres unmarked) [Compound 92],A (Fold activation≧300%)

# Now from value to compound:
row,FOLD ACT. (percent maximum fold activation),SMILES
1,C (Fold Activation<150%),O=C(Nc1ccccc1-c1nc2cccnc2s1)c1cc(OCCO)nc(-c2ccccc2)n1 [Compound 80]
2,A (Fold activation≧300%),CCN(CC)CCCNc1cc(C(=O)Nc2ccccc2-c2nc3cccnc3s2)nc(-c2ccccc2)n1 [Compound 81]
3,A (Fold activation≧300%),CN(C)CCCNc1cc(C(=O)Nc2ccccc2-c2nc3cccnc3s2)nc(-c2ccccc2)n1 [Compound 88]
4,A (Fold activation≧300%),CCN(CC)CCOc1cc(C(=O)Nc2ccccc2-c2nc3cccnc3s2)nc(-c2ccccc2)n1 [Compound 90]
5,A (Fold activation≧300%),CCN(CC)CCCOc1cc(C(=O)Nc2ccccc2-c2nc3cccnc3s2)nc(-c2ccccc2)n1 [Compound 93]

# Same assay, conditions: SIRT1 activation; 10 nM SIRT1, 0.5 μM peptide substrate, 120 μM βNAD+, 25 minutes at 25° C.
row,SMILES,EC1.5
1,Cc1ccn(CCNc2cc(C(=O)Nc3ccccc3-c3nc4cccnc4s3)nc(-c3ccccc3)n2)n1 [Compound 78],A′ (EC1.5<250 nM)
2,O=C(Nc1ccccc1-c1nc2cccnc2s1)c1cc(C#CCO)nc(-c2ccccc2)n1 [Compound 79],C (EC1.5>10 uM)
3,O=C(Nc1ccccc1-c1nc2cccnc2s1)c1cc(NCC2CCNCC2)nc(-c2ccccc2)n1 [Compound 82],A′ (EC1.5<250 nM)
4,NCCNc1cc(C(=O)Nc2ccccc2-c2nc3cccnc3s2)nc(-c2ccccc2)n1 [Compound 83],A (EC1.5≧250 nM and ≦1 uM)
5,NCCCNc1cc(C(=O)Nc2ccccc2-c2nc3cccnc3s2)nc(-c2ccccc2)n1 [Compound 84],A′ (EC1.5<250 nM)
6,O=C(Nc1ccccc1-c1nc2cccnc2s1)c1cc(N[C@H]2CCCNC2)nc(-c2ccccc2)n1 [Compound 85],A (EC1.5≧250 nM and ≦1 uM)
7,NCCCCCNc1cc(C(=O)Nc2ccccc2-c2nc3cccnc3s2)nc(-c2ccccc2)n1 [Compound 86],A′ (EC1.5<250 nM)
8,NCCCCNc1cc(C(=O)Nc2ccccc2-c2nc3cccnc3s2)nc(-c2ccccc2)n1 [Compound 87],A (EC1.5≧250 nM and ≦1 uM)
9,O=C(Nc1ccccc1-c1nc2cccnc2s1)c1cc(NCC2CCCCN2)nc(-c2ccccc2)n1 (centres unmarked) [Compound 89],A′ (EC1.5<250 nM)
10,O=C(Nc1ccccc1-c1nc2cccnc2s1)c1cc(NC2CCOC2=O)nc(-c2ccccc2)n1 (centres unmarked) [Compound 91],A′ (EC1.5<250 nM)
11,O=C(Nc1ccccc1-c1nc2cccnc2s1)c1cc(NC(CO)C(=O)O)nc(-c2ccccc2)n1 (centres unmarked) [Compound 92],B (EC1.5>1 and ≦10 uM)

# Now from value to compound:
row,EC1.5,SMILES
1,C (EC1.5>10 uM),O=C(Nc1ccccc1-c1nc2cccnc2s1)c1cc(OCCO)nc(-c2ccccc2)n1 [Compound 80]
2,A′ (EC1.5<250 nM),CCN(CC)CCCNc1cc(C(=O)Nc2ccccc2-c2nc3cccnc3s2)nc(-c2ccccc2)n1 [Compound 81]
3,A (EC1.5≧250 nM and ≦1 uM),CN(C)CCCNc1cc(C(=O)Nc2ccccc2-c2nc3cccnc3s2)nc(-c2ccccc2)n1 [Compound 88]
4,A (EC1.5≧250 nM and ≦1 uM),CCN(CC)CCOc1cc(C(=O)Nc2ccccc2-c2nc3cccnc3s2)nc(-c2ccccc2)n1 [Compound 90]
5,A (EC1.5≧250 nM and ≦1 uM),CCN(CC)CCCOc1cc(C(=O)Nc2ccccc2-c2nc3cccnc3s2)nc(-c2ccccc2)n1 [Compound 93]
